US20050170485A1, “Culture having phenol oxidase-like activity” (priority 2002, published 2005)

Tests used:
Assay type in all cases: biochemical
[1] = system: culture of Flammulina velutipes strain IFO 30601; assay: Substrate specificity of the culture (phenol oxidase-like activity, Table 1); conditions: pH 7.0; determined wavelength per substrate (Table 1)
[2] = molecular target: T1, bilirubin oxidase from the strain of the genus Myrothecium (Albifimbria verrucaria, UniProt Q12737); assay: Oxidative coupling reaction with 4-aminoantipyrine by bilirubin oxidase (comparison); conditions: reaction pH 8.0, substrate 2.0 mM
T1 sequence (Q12737 39-572): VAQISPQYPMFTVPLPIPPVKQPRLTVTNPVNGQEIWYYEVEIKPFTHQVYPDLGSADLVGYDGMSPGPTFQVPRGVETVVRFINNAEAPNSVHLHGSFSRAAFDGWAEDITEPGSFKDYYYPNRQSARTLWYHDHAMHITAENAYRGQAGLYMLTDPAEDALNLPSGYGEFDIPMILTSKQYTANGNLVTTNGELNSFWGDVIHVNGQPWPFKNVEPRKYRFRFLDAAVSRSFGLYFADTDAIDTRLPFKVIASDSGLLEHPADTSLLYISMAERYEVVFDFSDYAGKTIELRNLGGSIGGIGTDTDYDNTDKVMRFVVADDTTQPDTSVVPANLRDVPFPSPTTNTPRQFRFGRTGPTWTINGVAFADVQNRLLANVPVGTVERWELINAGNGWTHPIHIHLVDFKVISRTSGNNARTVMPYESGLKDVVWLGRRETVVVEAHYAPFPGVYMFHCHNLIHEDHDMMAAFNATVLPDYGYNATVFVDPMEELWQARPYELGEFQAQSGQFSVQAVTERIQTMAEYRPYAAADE
Procedure: (§1) Concretely, 190 μl of 105.3 mM phosphate buffer (pH 7.0) containing 0.4 μmol of a substrate and 4.0 μmol of 4-aminoantipyrine was pre-incubated in wells of a 96-well microplate [manufactured by Corning, Costor (registered trademark) 3368] at 25° C. for 1 minute. Next, 10 μl of the above-mentioned culture solution was added to the resulting mixture, and thereafter, the mixture was incubated for 1 hour. A change in absorbance at 490 nm or 450 nm was determined for the resulting product. One unit (U) of the activity regarding the oxidative coupling reaction was defined as an amount for increasing the absorbance by 1 per one minute.
In addition, for the comparison, the examination was made in the same manner for bilirubin oxidase from the strain of the genus Myrothecium except that the above-mentioned buffer was replaced with 105.3 mM Tris-HCl buffer (pH 8.0).

[3] = system: laccase from Japanese lacquer; assay: Direct oxidation reaction by laccase (comparison); conditions: reaction pH 7.0; 2-chloro 1,4-phenylenediamine = 100
Procedure: (§2) Next, 20 μl of the above-mentioned culture solution was added to the resulting mixture. A change in absorbance at 490 nm, 450 nm or 405 nm was determined for the resulting product, depending on the substrate. Here, 1 U (unit) of the activity regarding the direct oxidative reaction was defined as an amount for increasing the absorbance by 1 per one minute.
(§3) In addition, for the comparison, the substrate specificities at pH 7.0 for laccase from Japanese lacquer and bilirubin oxidase from the strain belonging to the genus Myrothecium were also examined in the same manner.

[4] = system: culture of Flammulina velutipes strain IFO 30601; assay: Direct oxidation reaction by the culture; conditions: for activity of the culture for the substrate in words, direct oxidation reaction: pH 7.0; for activity of the culture compared with bilirubin oxidase from the genus Myrothecium, direct oxidation / activity of the culture compared with laccase from Japanese lacquer, direct oxidation: pH 7.0, relative activities of Table 7; for Relative Activity, Culture (direct oxidation): reaction pH 7.0, 2-chloro 1,4-phenylenediamine = 100
Procedure: Further, the direct oxidation reaction of the culture obtained in the above-mentioned example was determined by using color development due to oxidative polymerization of a substrate generated by the direct action of the culture of the present invention on the substrate as an index.
As the substrates, there were used diaminophenolic compounds (2-chloro 1,4-phenylenediamine, p-phenylenediamine, 2,5-diaminotoluene, N-phenyl-p-phenylenediamine, toluylene-3,4-diamine, m-phenylenediamine), aminophenolic compounds (o-aminophenol, m-aminophenol, 5-amino-o-cresol, p-aminophenol, p-methylaminophenol), and phenolic compounds (2,6-dimethoxyphenol, catechol, resorcinol, hydroquinone, pyrogallol, gallic acid, propyl gallate, 1-naphthol, […], 2,3,4-trihydroxybenzophenone, 2,3,4,4-tetrahydroxybenzophenone). As to a substrate hardly soluble in water, there was used one obtained by dissolving the substrate in a small amount of dimethyl sulfoxide and diluting the resulting solution with deionized distilled water to a desired concentration. In Table 6, %” indicates volume/volume %.
as §2, with “Concretely, 180 μl of 0.89 mM sodium phosphate buffer (pH 7.0) containing […] substrate was pre-incubated in wells of a 96-well microplate [manufactured by Corning, Costor (registered trademark) 3368] at 25° C. for 1 minute. Next,” for “Next,”

[5] = molecular target: T2, bilirubin oxidase from the strain belonging to the genus Myrothecium (Albifimbria verrucaria, UniProt Q12737); assay: Direct oxidation reaction by bilirubin oxidase (comparison); set-up: concentration or dose not given beside the values; conditions: reaction pH 7.0; 2-chloro 1,4-phenylenediamine = 100
T2 sequence (Q12737 39-572): T1 sequence (Q12737 39-572)
Procedure: as §2, with “Concretely, 180 μl of 0.89 mM sodium phosphate buffer (pH 7.0) containing […] substrate was pre-incubated in wells of a 96-well microplate [manufactured by Corning, Costor (registered trademark) 3368] at 25° C. for 1 minute. Next,” for “Next,”
as §3
The relative activity (%) for each substrate is shown in Table 7, in which the measured value for a case where a representative chemical dye 2-chloro 1,4-phenylenediamine was used as a substrate is 100.

[6] = system: culture of Flammulina velutipes strain IFO 30601; assay: Oxidative coupling reaction with 4-aminoantipyrine by the culture; conditions: for activity of the culture for the substrate in words, oxidative coupling reaction: pH 7.0; for Specific Activity, Culture (oxidative coupling with 4-aminoantipyrine): reaction pH 7.0, 25° C., substrate 2.0 mM
Procedure: Next, the oxidative coupling reaction of the culture obtained in (2) in Example 1 mentioned above was determined by using color development as an index by the oxidative condensation of the substrate (hydrogen donor) with 4-aminoantipyrine, catalyzed by the culture of the present invention.
As the hydrogen donors, there were used phenolic compounds (phenol, 2-methoxyphenol, 2,6-dimethoxyphenol, catechol, resorcinol, hydroquinone, pyrogallol, gallic acid, propyl gallate, 1-naphthol, catechin), aminophenolic compounds (o-aminophenol, m-aminophenol, p-aminophenol), diaminophenolic compounds (o-phenylenediamine, m-phenylenediamine, p-phenylenediamine), and heterocyclic compounds (5-hydroxyindole, 2,6-diaminopyridine).
The above-mentioned culture solution was added to a reaction system containing 4-aminoantipyrine and an optional hydrogen donor. Thereafter, the activity of the culture of the present invention was assayed by determining a change in absorbance at 490 nm for the phenolic compound, the diaminophenolic compound and the heterocyclic compound, or determining a change in absorbance at 450 nm for the aminophenolic compound. As to a substrate hardly soluble in water, there was used one obtained by dissolving the substrate in a small amount of dimethyl sulfoxide and diluting the resulting solution with deionized water to a desired concentration. In Table 4, DMSO is an abbreviation for dimethyl sulfoxide.
as §1

SMILES	U (activity of the culture on the substrate) [1]	Specific Activity, Bilirubin Oxidase from Strain Belonging to Genus Myrothecium (oxidative coupling with 4-aminoantipyrine) [2]	Relative Activity, Laccase from Japanese Lacquer (direct oxidation) [3]	activity of the culture for the substrate in words, direct oxidation reaction [4]	activity of the culture compared with bilirubin oxidase from the genus Myrothecium, direct oxidation [4]	activity of the culture compared with laccase from Japanese lacquer, direct oxidation [4]	Relative Activity, Culture (direct oxidation) [4]	Relative Activity, Bilirubin Oxidase from Strain Belonging to Genus Myrothecium (direct oxidation) [5]	activity of the culture for the substrate in words, oxidative coupling reaction [6]	Specific Activity, Culture (oxidative coupling with 4-aminoantipyrine) [6]
N[C@@H](Cc1ccc(O)cc1)C(=O)O [L-Tyrosine]	0.018 U									
CCn1c(=NN=c2sc3cc(S(=O)(=O)O)ccc3n2CC)sc2cc(S(=O)(=O)O)ccc21 [ABTS]	0.683 U									
Nc1ccc(O)cc1 [p-Aminophenol]	0.072 U	7.0 U/mg Protein	109%	especially high activity	higher activity	higher activity	235%	70%	especially high activity	12.7 U/mg Protein
Nc1ccccc1O [o-Aminophenol]	0.262 U	15.1 U/mg Protein	103%	especially high activity	even higher activity	even higher activity	650%	86%	especially high activity	22.4 U/mg Protein
Oc1cccc2[nH]ccc12 [4-Hydroxyindole]	0.078 U									
Nc1ccc(N)cc1 [p-Phenylenediamine]	0.101 U	11.1 U/mg Protein	142%	especially high activity	higher activity	higher activity	388%	82%		20.9 U/mg Protein
COc1cc(/C=N/N=C/c2cc(OC)c(O)c(OC)c2)cc(OC)c1O [Syringaldazine]	0.141 U									
COc1cccc(OC)c1O [2,6-Dimethoxyphenol]	0.830 U	12.0 U/mg Protein	21%	high activity	even higher activity	even higher activity	250%	69%	especially high activity	18.1 U/mg Protein
COc1ccccc1O [2-Methoxyphenol]	0.117 U	2.5 U/mg Protein							especially high activity	14.5 U/mg Protein
O=C(O)c1cc(O)c(O)c(O)c1 [Gallic acid]		14.9 U/mg Protein	9%			even higher activity	65%	88%		0.9 U/mg Protein
Oc1ccc(O)cc1 [Hydroquinone]		0.5 U/mg Protein	2%		even higher activity	even higher activity	20%	4%		2.1 U/mg Protein
CCCOC(=O)c1cc(O)c(O)c(O)c1 [Propyl Gallate]		−0.1 U/mg Protein	14%		higher activity	higher activity	34%	85%		−0.2 U/mg Protein
Nc1cccc(O)c1 [m-Aminophenol]		1.3 U/mg Protein	3%		even higher activity	even higher activity	40%	3%		8.8 U/mg Protein
